US8591902B2, “Antibody binding to lysophosphatidylglucoside, and composition comprising the same” (Riken, priority 2010, dated 2013)

Legend:
[1] = tested on: growth cone of an NGF-dependent neuron (TrkA neuron); test: In vitro growth cone turning assay, NGF-supplemented medium; format: cell-based, chicken; conditions: for change in axon extension direction in response to concentration gradient: NGF-supplemented medium, TrkA neuron, lysophospholipid 10 μM in pipette, 45 minutes
Excerpt: (§1) The method described in T. Tojima et al., Nat Neurosci 10, 58-66 (January, 2007) was somewhat modified and employed to perform a primary culture of isolated DRG sensory nerves. Specifically, a chicken embryo at HH St. 29 was separated from the eggshell and decapitated. The body was transferred to ice-cooled PBS. Organs were removed from the obtained body with forceps, and the spine was exposed by ventral laminectomy. DRGs were isolated from the thoracic or lumbosacral spinal cord, broken into pieces fine watchmaker's forceps, and transferred into an L15 medium on ice. The DRG obtained by the dissection was treated with trypsin at 37° C. for 20 minutes, followed by centrifugation at 100 g for 1 minute. A minimum amount of an L15 medium was added to the pellets thus obtained, and the cells were manually suspended (repeated manual trituration). The cell suspension was again centrifuged at 100 g for 1 minute, and the supernatant was removed. Subsequently, the pellets were resuspended in a Leibovitz's L15 medium supplemented with N-2 (manufactured by Invitrogen Corp.), 750 μg/ml of BSA (manufactured by GIBCO), and 25 ng/ml of NGF or 50 ng/ml of NT-3 (manufactured by Sigma-Aldrich Corporation). The cells were seeded on glass dishes precoated with mouse-derived laminin (manufactured by Invitrogen Corp.) at […] such that the cell count would be 10,000 per dish. The dishes were placed in a culturing environment of 5% CO2 at 37° C. for approximately 2 hours before used in a growth cone turning assay.
The in vitro growth cone turning assay was conducted according to the methods described in M. Lohof, M. Quillan, Y. Dan, M. M. Poo, J Neurosci 12, 1253-61 (April, 1992), J. Q. Zheng, M. M. Poo, J. A. Connor, Perspect Dev Neurobiol 4, 205-13 (1996), and Y. Xiang et al., Nat Neurosci 5, 843-8 (September, 2002), which were somewhat modified. Specifically, lysophosphatidylcholine (manufactured by Sigma-Aldrich Corporation) or Lyso-PtdGlc prepared by a method described later was diluted with a vehicle (1% (v/v) methanol/PBS) such that the concentration would be 10 μM. […]

[2] = tested on: growth cone of an NT-3-dependent neuron (TrkC neuron); test: In vitro growth cone turning assay, NT-3-supplemented medium; format: cell-based, chicken; conditions: lysophospholipid 10 μM in pipette, 45 minutes
Excerpt: as §1, with “The dishes were placed in a culturing environment of 5% CO2 at 37° C. for approximately 2 hours before used in a growth cone turning assay.” left out

| Compound | change in axon extension direction in response to concentration gradient [1] | change in axon extension direction in response to concentration gradient [2] | chemorepellent effect on growth cone turning ([1]; in the presence of 50 μg/ml anti-Lyso-PtdGlc antibody) |
| --- | --- | --- | --- |
| CCCCCCCCCCCCCCCCCC(=O)OCC(O)COP(=O)(O)O[C@@H]1OC(CO)[C@@H](O)C(O)C1O (some centres unmarked) [Lyso-PtdGlc, lysophosphatidylglucoside] | changed its extension direction | no significant change |  |
| Lysophosphatidic acid [LPA] |  |  | strong chemorepellent effect |
| Lysophosphatidylcholine [LPC] | no significant influence | no significant influence |  |
